Assays:
PKD1 [1] = target: T1, PKD1 (Homo sapiens, UniProt Q15139); assay: % PKD1 activity at 1 μM (single concentration; assay format not stated); assay type: biochemical; conditions: compound at 1 μM
T1 sequence (Q15139 1-912): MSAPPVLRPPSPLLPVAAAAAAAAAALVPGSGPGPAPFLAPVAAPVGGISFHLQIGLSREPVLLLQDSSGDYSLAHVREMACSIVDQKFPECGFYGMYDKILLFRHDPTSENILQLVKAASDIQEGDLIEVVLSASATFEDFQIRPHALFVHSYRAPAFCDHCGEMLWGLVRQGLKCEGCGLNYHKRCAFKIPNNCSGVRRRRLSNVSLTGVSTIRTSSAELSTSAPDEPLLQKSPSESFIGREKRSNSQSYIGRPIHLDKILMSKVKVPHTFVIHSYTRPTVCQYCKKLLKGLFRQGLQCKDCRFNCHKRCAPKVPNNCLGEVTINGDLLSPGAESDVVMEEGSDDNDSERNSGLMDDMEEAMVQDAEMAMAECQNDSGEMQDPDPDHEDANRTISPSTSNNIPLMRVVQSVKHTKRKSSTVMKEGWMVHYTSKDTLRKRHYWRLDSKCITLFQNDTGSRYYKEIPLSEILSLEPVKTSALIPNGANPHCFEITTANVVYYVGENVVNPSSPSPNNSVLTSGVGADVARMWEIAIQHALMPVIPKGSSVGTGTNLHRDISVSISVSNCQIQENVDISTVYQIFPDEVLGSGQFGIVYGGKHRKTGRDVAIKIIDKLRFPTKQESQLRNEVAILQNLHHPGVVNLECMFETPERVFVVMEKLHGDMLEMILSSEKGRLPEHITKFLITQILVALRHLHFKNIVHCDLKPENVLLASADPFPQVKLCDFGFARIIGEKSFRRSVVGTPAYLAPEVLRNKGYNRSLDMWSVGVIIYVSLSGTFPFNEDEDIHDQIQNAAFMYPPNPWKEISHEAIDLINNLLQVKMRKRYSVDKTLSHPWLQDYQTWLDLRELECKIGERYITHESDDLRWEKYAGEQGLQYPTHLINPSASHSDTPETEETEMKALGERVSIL

PKD1 [2] = target: T1, PKD1; assay: In vitro radiometric PKD kinase activity assay; assay type: biochemical; parameters: purchased Biomol International; conditions: mean ± SEM, n = number of independent experiments; for IC50: read-out: IC50 Radiometric PKD1
Experimental: In vitro radiometric PKD kinase assays were conducted as previously described. Briefly, 50 ng recombinant human PKD1 (Biomol International, Plymouth Meeting, PA, USA) was incubated at 30 °C for 10 min with a reaction mixture containing 2.5 μg syntide-2 (Sigma), 70 μM ATP, and 1 μCi γ-^32 P-ATP (PerkinElmer, Boston, MA, USA) in kinase buffer (50 mM Tris-HCl pH 7.5, […], and 10 mM […]). 25 μL of the reaction mixture was then spotted on Whatman P81 filter paper (Whatman Inc., Clifton, NJ, USA), and filter papers were washed three times with 0.5% phosphoric acid, dried, then counted using a Beckman LS6500 multi-purpose scintillation counter.

PKD1 [3] = target: T1, PKD1; assay: IMAP-based PKD Fluorescence Polarization (FP) assay, automated HTS format; assay type: biochemical; conditions: mean ± SEM, n = number of independent experiments
Experimental: An automated, HTS formatted IMAP-based PKD Fluorescence Polarization (FP) assay was used to assess the specificity of the PKD analogs as previously described. […] Kinase reactions were incubated for 90 min at room temperature and stopped by the addition of IMAP binding reagent. Assay plates were then incubated for 2 h and IMAP-based FP data were captured on a Molecular Devices Spectra-Max M5 (Sunnyvale, CA, USA).

remaining activity at 1 µM (PKD1 [1]) [%]	melting point	IC50 (PKD1 [2]) [µM]	IC50 Radiometric PKD1 (PKD1 [2])	IC50 (PKD1 [3]) [µM]	IC50 IMAP-FP PKD1 (PKD1 [3])	SMILES
92.4	182 to 184 °C (dec.)	16.4				Oc1ccc2sc3c(c2c1)SCCNC3 [kb-NB165-83, 2,3,4,5-Tetrahydro-9-hydroxy-[1]benzothieno[2,3-f]-1,4-thiazepine]
91.3 ± 1.5	116 to 120 °C		not inhibitory			COC(=O)c1sc2ccc(OC)cc2c1NCCCO [kb-NB184-80, Methyl 3-(3-hydroxypropylamino)-5-methoxybenzo[b]thiophene-2-carboxylate]
29.5	185 to 188 °C	0.19 ± 0.03				COc1ccc2sc3c(c2c1)SCCCNC3=O [kb-NB184-02, 2,3,4,5-Tetrahydro-10-methoxybenzo[b]thieno[2,3-f]-1,5-thiazocin-6-one]
	280 to 282 °C	1.23 ± 0.21		24.1 ± 0.71		O=C1NCCC(O)c2c1oc1ccc(O)cc21 (stereo not shown) [kb-NB123-89, 5,7-Dihydroxy-2,3,4,5-tetrahydro-[1]benzoxolo[2,3-c]azepin-1-one]
	> 300 °C	0.24		1.3 ± 0.05		O=C1NCCCc2c1oc1ccc(O)c(F)c21 [kb-NB96-21, 6-Fluoro-7-hydroxy-2,3,4,5-tetrahydro-[1]benzoxolo[2,3-c]azepin-1-one]
	198 to 200 °C	1.23		2.6 ± 0.2		C=CCOc1ccc2oc3c(c2c1)CCCNC3=O [kb-NB77-84, 7-Allyloxy-2,3,4,5-tetrahydro-[1]benzoxolo[2,3-c]azepin-1-one]
	280 to 282 °C	15.7 ± 0.19		74.4 ± 2.2		Nc1ccc2[nH]c3c(c2c1)CCNC3=O [kb-NB142-08, 6-Amino-2,3,4,9-tetrahydro-1H-pyrido[3,4-b]indol-1-one]
50.4 ± 2.3	284 to 287 °C	1.08				COc1ccc2c(c1)c1c([s+]2[O-])C(=O)NCCS1 (stereo not shown) [kb-NB184-25, 3,4-Dihydro-9-methoxy-6-oxide-[1]benzothieno[2,3-f]-1,4-thiazepin-5(2H)-one]
99 ± 11	269 to 272 °C (dec.)					O=C1NCCSc2c1sc1c(O)cccc21 [kb-NB184-40, 3,4-Dihydro-7-hydroxy-[1]benzothieno[2,3-f]-1,4-thiazepin-5(2H)-one]
74.4 ± 1.1	198.6 to 199 °C	3.17				Nc1ccc2sc3c(c2c1)SCCNC3=O [mcf292-03, 3,4-Dihydro-9-amino-[1]benzothieno[2,3-f]-1,4-thiazepin-5(2H)-one]
98.6 ± 4.1	213 to 215 °C					O=C1NCCSc2c1sc1c(OCc3ccccc3)cccc21 [kb-NB184-38, 3,4-Dihydro-7-benzyloxy-[1]benzothieno[2,3-f]-1,4-thiazepin-5(2H)-one]
97 ± 16	215 to 217 °C					COc1ccc2sc3c(c2c1)[S+]([O-])CCNC3=O (stereo not shown) [kb-NB184-45, 3,4-Dihydro-9-methoxy-1-oxide-[1]benzothieno[2,3-f]-1,4-thiazepin-5(2H)-one]
	265 to 268 °C	1.41		12.6 ± 1.3		O=C1NCCc2c1oc1ccc(O)cc21 [kb-NB123-23A, 6-Hydroxy-3,4-dihydrobenzoxolo[2,3-c]pyridin-1(2H)-one]
	208 to 210 °C				not inhibitory	O=C1NCCc2c1[nH]c1ccc(OCc3ccccc3)cc21 [kb-NB123-52, 2,3,4,9-Tetrahydro-6-benzyloxy-1H-pyrido[3,4-b]indol-1-one]

The remaining lines, values behind:

SMILES	remaining activity at 1 µM (PKD1 [1]) [%]	melting point	IC50 (PKD1 [2]) [µM]	IC50 Radiometric PKD1 (PKD1 [2])	IC50 (PKD1 [3]) [µM]	IC50 IMAP-FP PKD1 (PKD1 [3])
COc1cccc2c3c(sc12)C(=O)NCCS3 [kb-NB184-44, 3,4-Dihydro-7-methoxy-[1]benzothieno[2,3-f]-1,4-thiazepin-5(2H)-one]	77.5 ± 3.6	220 to 224 °C				
COc1ccc2sc3c(c2c1)OCCCNC3=O [kb-NB184-57, 2,3,4,5-Tetrahydro-10-methoxybenzo[b]thieno[2,3-f]-1,5-oxazocin-6-one]	62 ± 3.5	233 to 237 °C				
O=C1NCCSc2c1[s+]([O-])c1ccc(O)cc21 (stereo not shown) [kb-NB184-22, 3,4-Dihydro-9-hydroxy-6-oxide-[1]benzothieno[2,3-f]-1,4-thiazepin-5(2H)-one]	66.5 ± 6.1	160 to 163 °C (dec.)				
O=C1NCCCc2c1oc1ccc(O)c(Cl)c21 [kb-NB77-88, 6-Chloro-7-hydroxy-2,3,4,5-tetrahydro-[1]benzoxolo[2,3-c]azepin-1-one]		> 300 °C	0.89		1.4 ± 0.1	
c1ccc(COc2ccc3sc4c(c3c2)SCCNC4)cc1 [kb-NB165-81, 2,3,4,5-Tetrahydro-9-benzyloxy-[1]benzothieno[2,3-f]-1,4-thiazepine]	78.3	144 to 145 °C	39.6			
C=CCc1c(O)ccc2oc3c(c12)CCCNC3=O [kb-NB96-02, 6-Allyl-7-hydroxy-2,3,4,5-tetrahydro-[1]benzoxolo[2,3-c]azepin-1-one]		255 to 257 °C	1.58		2.4 ± 0.3	
COc1ccc2oc3c(c2c1)CCCNC3=O [kb-NB77-56, 7-Methoxy-2,3,4,5-tetrahydro-[1]benzoxolo[2,3-c]azepin-1-one]		261 to 263 °C	2.39		2.4 ± 0.14	
O=C1NCCSc2c1sc1ccc(O)c(Br)c21 [kb-NB184-52, 3,4-Dihydro-9-hydroxy-10-bromo-[1]benzothieno[2,3-f]-1,4-thiazepin-5(2H)-one]	12.7 ± 0.2	235 to 238 °C (dec.)	0.048			
O=C1NCCCOc2c1sc1ccc(OCc3ccccc3)cc21 [kb-NB184-36, 2,3,4,5-Tetrahydro-10-benzyloxybenzo[b]thieno[2,3-f]-1,5-oxazocin-6-one]	83.3 ± 3.8	195 to 200 °C				
NCCN1CCSc2c(sc3ccc(O)cc23)C1=O [kb-NB165-75, 2,3-Dihydro-4-(2-aminoethyl)-9-hydroxy-[1]benzothieno[2,3-f]-1,4-thiazepin-5(2H)-one]	55.6	250 to 254 °C	0.757			
O=C1NCCC(=O)c2c1oc1ccc(O)cc21 [kb-NB123-63, 7-Hydroxy-3,4-dihydro-[1]benzoxolo[2,3-c]azepine-1,5(2H)-dione]		> 300 °C	0.85 ± 0.11		14.9 ± 1.2	
O=C1NCCc2c1[nH]c1ccc(O)cc21 [kb-NB123-59, 2,3,4,9-Tetrahydro-6-hydroxy-1H-pyrido[3,4-b]indol-1-one]		244 to 247 °C	1.57 ± 0.2		19.4 ± 1.4	
O=C1NCCCSc2c1sc1ccc(OCc3ccccc3)cc21 [kb-NB165-89, 2,3,4,5-Tetrahydro-10-benzyloxybenzo[b]thieno[2,3-f]-1,5-thiazocin-6-one]	84.3	198 to 199 °C	21.7			
O=C1NCCC(=NNc2ccccc2)c2c1oc1ccc(O)cc21 [kb-NB142-05, 7-Hydroxy-5-(2-phenylhydrazono)-2,3,4,5-tetrahydro-[1]benzoxolo[2,3-c]azepin-1-one]		234 to 236 °C	1.13		21.7 ± 0.52	
